Values quoted from earlier work in PMC3426641 (Biochemistry, 2012).

Biological target: T1, Eis_Mtb (Mycobacterium tuberculosis, UniProt P9WFK7)
Conditions: TLC and NMR spectroscopy; cited from earlier work

T1 sequence (P9WFK7 whole entry): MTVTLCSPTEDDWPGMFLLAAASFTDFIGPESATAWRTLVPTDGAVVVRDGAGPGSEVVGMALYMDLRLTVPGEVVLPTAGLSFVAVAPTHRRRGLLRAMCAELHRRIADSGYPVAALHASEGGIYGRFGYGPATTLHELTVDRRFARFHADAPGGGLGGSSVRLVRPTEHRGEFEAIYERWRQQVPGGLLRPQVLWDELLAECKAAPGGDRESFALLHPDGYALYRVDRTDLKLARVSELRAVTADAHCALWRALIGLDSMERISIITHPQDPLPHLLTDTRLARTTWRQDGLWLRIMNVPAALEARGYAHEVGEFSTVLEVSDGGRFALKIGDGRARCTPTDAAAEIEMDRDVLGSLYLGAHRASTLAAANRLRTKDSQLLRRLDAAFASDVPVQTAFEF

Row | Compound | positions acetylated (regio-specificity)
1 | NC[C@H]1O[C@H](O[C@H]2[C@H](O)[C@@H](O)[C@H](N)C[C@@H]2N)[C@H](N)[C@@H](O)[C@@H]1O [NEA, neamine] | first at the 2′-, then at the 6′-, and finally at the 1-position

Biological target: T1, Eis_Mtb
Conditions: cited from earlier work

Row | Compound | level of acetylation by Eis from M. tuberculosis
2 | kanamycin A | di-acetylated

Same assay, conditions: number of acetylations per AG; previously reported; cited from earlier work

Row | Compound | level of acetylation by Eis from M. tuberculosis
3 | NCC[C@H](O)C(=O)N[C@@H]1C[C@H](N)[C@@H](O[C@H]2O[C@H](CN)[C@@H](O)[C@H](O)[C@H]2O)[C@H](O)[C@H]1O[C@H]1O[C@H](CO)[C@@H](O)[C@H](N)[C@H]1O [AMK, amikacin] | tri-acetylated
4 | CN[C@@H]1[C@@H](O[C@H]2O[C@H](CO)[C@@H](N)[C@H](O)[C@H]2O)OC2C[C@@H](N)[C@@H](O[C@H]3[C@H](O)[C@@H](O)[C@H](N)C[C@@H]3N)OC2[C@@H]1O (some centres unmarked) [APR, apramycin] | could not chemically modify
5 | CN[C@@H]1C[C@H](N)[C@@H](O)[C@H](O[C@H]2O[C@H](CO)[C@H](O)[C@@H]3O[C@@]4(O[C@@H]23)O[C@H]([C@H](N)CO)[C@H](O)[C@H](O)[C@H]4O)[C@H]1O [HYG, hygromycin] | di-acetylated
6 | NC[C@H]1O[C@H](O[C@H]2[C@H](O)[C@@H](O)[C@H](N)C[C@@H]2N)[C@H](N)[C@@H](O)[C@@H]1O [NEA, neamine] | tri-acetylated
7 | NC[C@@H]1O[C@H](O[C@H]2[C@@H](O)[C@H](O[C@@H]3[C@@H](O)[C@H](N)C[C@H](N)[C@H]3O[C@H]3O[C@H](CN)[C@@H](O)[C@H](O)[C@H]3N)O[C@@H]2CO)[C@H](N)[C@@H](O)[C@@H]1O [NEO, neomycin B] | tri-acetylated
8 | CCN[C@@H]1C[C@H](N)[C@@H](O[C@H]2OC(CN)=CC[C@H]2N)[C@H](O)[C@H]1O[C@H]1OC[C@](C)(O)[C@H](NC)[C@H]1O [NET, netilmicin] | di-acetylated
9 | NC[C@@H]1O[C@H](O[C@H]2[C@@H](O)[C@H](O[C@@H]3[C@@H](O)[C@H](N)C[C@H](N)[C@H]3O[C@H]3O[C@H](CO)[C@@H](O)[C@H](O)[C@H]3N)O[C@@H]2CO)[C@H](N)[C@@H](O)[C@@H]1O [PAR, paromomycin] | di-acetylated
10 | NC[C@H]1O[C@H](O[C@H]2[C@H](O[C@@H]3O[C@H](CO)[C@@H](O)[C@H]3O)[C@@H](O)[C@H](N)C[C@@H]2N)[C@H](N)[C@@H](O)[C@@H]1O [RIB, ribostamycin] | tri-acetylated
11 | CN[C@@H]1[C@@H](O)[C@@H](O[C@@H]2[C@@H](O)[C@H](O[C@H]3OC(CN)=CC[C@H]3N)[C@@H](N)C[C@H]2N)OC[C@]1(C)O [SIS, sisomicin] | tri-acetylated
12 | CN[C@@H]1[C@H](O)[C@H](NC)[C@H]2O[C@@]3(O)C(=O)C[C@@H](C)O[C@H]3O[C@@H]2[C@H]1O [SPT, spectinomycin] | not modified
13 | [H]/N=C(/N)N[C@H]1[C@H](O)[C@@H](O)[C@H](O[C@@H]2O[C@@H](C)[C@](O)(C=O)[C@H]2O[C@@H]2O[C@@H](CO)[C@H](O)[C@@H](O)[C@@H]2NC)[C@@H](N/C(N)=N\[H])[C@@H]1O [STR, streptomycin] | not modified
14 | NC[C@H]1O[C@H](O[C@H]2[C@H](O)[C@@H](O[C@H]3O[C@H](CO)[C@@H](O)[C@H](N)[C@H]3O)[C@H](N)C[C@@H]2N)[C@H](N)C[C@@H]1O [TOB, tobramycin] | tetra-acetylated
